We go through one compound from patent US20240398823A1, “DUAL INHIBITOR OF HISTONE DEACETYLASE 6 AND HEAT SHOCK PROTEIN 90” (TAIPEI MEDICAL UNIVERSITY, priority 2021, published 2024).

What is called pIC50 is the negative decadic logarithm of the IC50, by convention in mol/L. A low value points to a large IC50.

Series [1] has as its target T1, HDAC6 (Homo sapiens, UniProt Q9UBN7).
T1 construct: Reaction Biology Corporation (ran the assay as a service)
T1 sequence (Q9UBN7 1-1215): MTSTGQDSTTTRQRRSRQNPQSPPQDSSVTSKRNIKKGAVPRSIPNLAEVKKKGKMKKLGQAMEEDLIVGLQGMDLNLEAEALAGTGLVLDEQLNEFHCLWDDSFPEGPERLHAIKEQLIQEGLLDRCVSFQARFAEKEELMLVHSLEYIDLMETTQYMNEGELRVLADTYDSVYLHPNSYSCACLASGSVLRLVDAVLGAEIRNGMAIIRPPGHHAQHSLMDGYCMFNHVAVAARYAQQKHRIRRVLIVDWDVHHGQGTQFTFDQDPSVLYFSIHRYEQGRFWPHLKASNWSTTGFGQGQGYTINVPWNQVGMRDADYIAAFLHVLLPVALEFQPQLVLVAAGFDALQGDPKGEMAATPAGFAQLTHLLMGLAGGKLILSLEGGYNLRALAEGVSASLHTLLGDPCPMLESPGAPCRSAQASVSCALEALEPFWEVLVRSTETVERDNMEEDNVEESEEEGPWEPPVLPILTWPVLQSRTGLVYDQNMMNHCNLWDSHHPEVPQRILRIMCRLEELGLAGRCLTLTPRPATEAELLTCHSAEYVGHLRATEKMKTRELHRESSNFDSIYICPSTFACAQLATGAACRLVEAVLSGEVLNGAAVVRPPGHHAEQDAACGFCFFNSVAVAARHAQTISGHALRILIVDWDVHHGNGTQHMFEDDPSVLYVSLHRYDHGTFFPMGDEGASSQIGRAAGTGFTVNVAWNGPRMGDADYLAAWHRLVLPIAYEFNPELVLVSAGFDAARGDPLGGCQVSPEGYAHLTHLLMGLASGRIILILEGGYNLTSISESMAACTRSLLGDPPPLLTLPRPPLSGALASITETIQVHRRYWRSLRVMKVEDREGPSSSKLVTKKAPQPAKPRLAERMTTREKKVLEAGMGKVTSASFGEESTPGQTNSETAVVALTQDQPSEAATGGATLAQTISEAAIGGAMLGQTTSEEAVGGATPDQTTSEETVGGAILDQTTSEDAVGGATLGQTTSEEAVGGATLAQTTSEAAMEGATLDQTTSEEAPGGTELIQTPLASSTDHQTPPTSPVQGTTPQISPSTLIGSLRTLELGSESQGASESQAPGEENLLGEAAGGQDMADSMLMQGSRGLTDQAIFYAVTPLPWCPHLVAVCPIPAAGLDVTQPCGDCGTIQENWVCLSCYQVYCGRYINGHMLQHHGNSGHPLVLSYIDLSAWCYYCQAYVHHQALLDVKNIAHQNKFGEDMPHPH
The experiment in a line: HDAC enzymes inhibition assay (Reaction Biology), HDAC6. Type of series: biochemical. The conditions noted are these: 10-dose, 3-fold dilution from 10 μM, single experiment.

The test system of series [2] is T cells in blood (CD8+, CD4+, Treg). The experiment in a line: Peripheral blood immune cells by flow cytometry in CT26 tumor mice. Type of series: in vivo, mouse. Conditions: day 25, flow cytometry, 10, 25, 50 mg/kg. The procedure: FIGS. 10A to 10C show immune cell regulation of peripheral blood by Compound 75. BALB/c mice with CT26 tumors were treated with 10, 25 and 50 mg/kg of Compound 75 every two days, and blood was collected from the heart and analyzed by flow cytometry on day 25 for cytotoxicity T cells (CD3+CD8+) (as shown in FIG. 10A), helper T cells (CD3^+CD4^+) (as shown in FIG. 10B) and regulatory T cells (CD3^+CD4^+FOXP3^+) (as shown in FIG. 10C). Data are expressed as mean±S.D. N values greater than 3. * P<0.05; ** P<0.01; *** P<0.001, compared with the control group.
The reasons for the decrease of Treg in blood were further investigated.
For orientation: Flow cytometry measures light scatter and fluorescence of single cells or particles in a stream.

In series [3] the target is T2, HSP90α (Homo sapiens, UniProt P07900).
T2 construct: Reaction Biology Corporation (ran the assay as a service)
Briefly: HSP90 inhibition assay, FITC-geldanamycin competition fluorescence polarization, HSP90α. Type of series: binding. The conditions noted are these: FITC-GM competition. For orientation: In fluorescence polarisation assays a small probe gives low polarisation when free and higher when bound to something large.

For series [4], the target named is T3, HDAC1 (Homo sapiens, UniProt Q13547).
T3 construct: Reaction Biology Corporation (ran the assay as a service)
Briefly: HDAC enzymes inhibition assay (Reaction Biology), HDAC1. Type of series: biochemical. Conditions: 10-dose, 3-fold dilution from 10 μM, single experiment.

Series [5] deals with colorectal cancer tumors (CT26). The experiment in a line: CT26 syngeneic tumor growth in immunocompetent Balb/c mice. The conditions noted are these: CT26 in Balb/c, 10, 25, 50 mg/kg i.v. every two days. Type of series: in vivo, mouse. Here is the method: Tumor size in each mouse (FIG. 5B) and mean tumor size (FIG. 5C) were measured periodically. Bar, SEM. […] N values greater than 3.
The effects of the HSP90/HDAC6 dual inhibitors as described in Synthesis Examples (such as Compounds 63, 64, and 66 to 76) on syngeneic tumor treatment were evaluated. Female BALB/c mice were subcutaneously implanted with mouse colorectal cancer CT26 cells ([…] cells/mouse) in the left unilateral back. After tumor size reached 50 mm^3, mice were i.v. injected with […], STA9090 (Ganetespib), or anti-PD-1 antibody (clone RMP1-14) (4-8 mice per group). The progression of tumor sizes and body weights was measured twice per week. Tumor volume formula: V (mm^3)=(length×width×height)/2. Mice were sacrificed on day 25, and tumors and blood were collected for the analysis of immune cell populations.
After CT26 was injected subcutaneously into the back of immunocompetent mice (Balb/c), the tumors grew to 50 mm^3. Compound 75 was administered intravenously at 10 mg/kg, 25 mg/kg and 50 mg/kg every two days (FIG. 5A).

Series [6] relates to PD-L1 expression in HCT116, LS174T, Mia paca-2, BXPC3, A549 and CT26 cells. Briefly: IFN-γ-induced cell membrane PD-L1 in different cancer cell lines by flow cytometry. Type of series: cell-based, human; mouse. The conditions noted are these: Mia paca-2, BXPC3, A549, CT26, co-treated 48 hours. Here is the method: The cells were tested in 6-well plates with 32×10^4 cells/well and co-treated with Compound 75 for 48 hours and analyzed by flow cytometry. Bar, SD. […] The effects of the HSP90/HDAC6 dual inhibitors as described in Synthesis Examples (such as Compounds 63, 64, and 66 to 76) on PD-L1 expression were evaluated. Cells were seeded in 6-well plates (3.2×10^5 cells/well) and treated on the next day with […] and compounds or DMSO (vehicle) at indicated concentrations for 48 h. The treated cells were suspended (3×10^5 cells/tube) and stained with PD-L1 antibody (Invitrogen, Waltham, USA) and FITC-conjugated secondary antibodies on ice for 1 h. The fluorescence signal of the cells was analyzed by FASCalibur flow cytometer and CellQuest software (BD Biosciences, San Jose, CA, USA). Using flow cytometry, whether Compound 75 could downregulate […]-induced PD-L1 performance in different cancer cell lines was evaluated, namely human colorectal cancer cell lines (HCT116 and LS174T), human pancreatic cancer cell lines (Mia paca-2 and BXPC3), human lung cancer cell line (A549) and mouse colorectal cancer cell line (CT26).

Structures are written as SMILES. pIC50: −log10 of the molar value.

T3 sequence (Q13547 whole entry): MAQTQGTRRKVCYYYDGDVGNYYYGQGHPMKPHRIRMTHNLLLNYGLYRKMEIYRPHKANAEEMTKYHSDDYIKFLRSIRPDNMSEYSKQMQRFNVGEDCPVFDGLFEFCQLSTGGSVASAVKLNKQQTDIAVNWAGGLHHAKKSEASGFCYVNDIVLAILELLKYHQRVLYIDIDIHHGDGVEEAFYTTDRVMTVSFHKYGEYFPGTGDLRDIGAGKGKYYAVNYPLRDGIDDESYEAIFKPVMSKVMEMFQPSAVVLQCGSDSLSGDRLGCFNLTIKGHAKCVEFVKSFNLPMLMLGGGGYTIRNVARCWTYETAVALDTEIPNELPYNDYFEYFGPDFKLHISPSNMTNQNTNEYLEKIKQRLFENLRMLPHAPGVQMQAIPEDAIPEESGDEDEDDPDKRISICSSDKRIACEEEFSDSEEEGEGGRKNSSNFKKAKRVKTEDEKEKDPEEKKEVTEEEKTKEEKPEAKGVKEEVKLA

Compound `COc1ccc(N(Cc2ccc(C(=O)NO)cc2)C(=O)c2cc(C(C)C)c(O)cc2O)cc1` [Compound 75, 2,4-Dihydroxy-N-(4-hydroxycarbamoyl-benzyl)-5-isopropyl-N-(4-methoxy-phenyl)-benzamide] had a pIC50 in series [1] of 8.34. In addition, in series [2], the “immunosuppressive Treg cell level in blood” value is recorded as “could be reduced in a concentration dependent manner”, the “percentage of CD4+ helper T cells in blood” value is on record as “did not affect” and the “percentage of CD8+ cytotoxicity T cells in blood” value is given as “did not affect”. The pIC50 in series [3] is 7.28. The compound further had a pIC50 in series [4] of 6.21. The “growth of colorectal cancer tumors in mice” value in series [5] is “inhibit the growth of colorectal cancer tumors in mice”. In addition, the “IFN-γ-induced cell membrane protein PD-L1 expression” value in series [6] is “inhibits all IFN-7-induced cell membrane protein PD-L1 expression”.
